Measured values taken from patent US20250382305A1 (PTC THERAPEUTICS, INC., priority 2022, published 2025).

Columns and labels:
[1] = test system: Total ATXN3 (tATXN3) protein; assay: Endogenous Total ATXN3 (tATXN3) Protein Assay (MSD immunoassay of cell lysates); format: cell-based; conditions: average IC50, total ATXN3 protein in cell lysate after 48 h with compound (Table 1)
Procedure, shortened: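 By electrochemiluminescent MSD sandwich immunoassay (mouse monoclonal capture, rabbit monoclonal and SULFO-TAG anti-rabbit detection), endogenous ATXN3 was quantified in lysates of cells treated 48 h at 37° C at 10,000 cells/well. Treatment used a 7-point 3.16-fold duplicate dilution series, with average IC50 grouped into star categories.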

ATXN3 pre-mRNA = assay: RT-qPCR Assay to Quantify Exon 4 Skipping in ATXN3 pre-mRNA in Cells; format: cell-based; conditions: percent exon 4 skipping in ATXN3 pre-mRNA, RT-qPCR of cell lysates; average IC50
Procedure, shortened: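 IC50 derives from a dose-response fit of percent exon 4 skipping, quantified by RT-qPCR on crude lysates. Compounds tested as 7-point 3.16-fold dilutions in duplicate; cells (10,000/well) were exposed for 24 h at 37 °C before lysis.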

Compound | IC50 [1] | IC50 (ATXN3 pre-mRNA)
CC#CCNc1cc(Cl)nc2c(Br)c([C@H]3CC=CC[C@@H]3N)sc12 [Compound 230, 2-((1S,6S)-6-aminocyclohex-3-en-1-yl)-3-bromo-N-(but-2-yn-1-yl)-5-chlorothieno[3,2-b]pyridin-7-amine] | ≤ 30 nM | ≤ 30 nM
Cc1c([C@H]2CCCC[C@@H]2N)sc2c(NCc3ccco3)cc(Cl)nc12 [Compound 231, 2-((1S,2S)-2-aminocyclohexyl)-5-chloro-N-(furan-2-ylmethyl)-3-methylthieno[3,2-b]pyridin-7-amine] | ≤ 30 nM | ≤ 30 nM
Cc1c([C@H]2COCC[C@@H]2N)sc2c(NCc3cccs3)cc(Cl)nc12 [Compound 232, 2-((3R,4S)-4-aminotetrahydro-2H-pyran-3-yl)-5-chloro-3-methyl-N-(thiophen-2-ylmethyl)thieno[3,2-b]pyridin-7-amine] | ≤ 30 nM | ≤ 30 nM
CC1=C(C)C[C@H](N)[C@@H](c2sc3c(NCc4ccco4)cc(Cl)nc3c2Cl)C1 [Compound 233, 2-((1S,6S)-6-amino-3,4-dimethylcyclohex-3-en-1-yl)-3,5-dichloro-N-(furan-2-ylmethyl)thieno[3,2-b]pyridin-7-amine] | ≤ 30 nM | ≤ 30 nM
Cc1c([C@H]2CC=CC[C@@H]2N)sc2c(NCc3ccncc3)nc(Cl)nc12 [Compound 234, 6-((1S,6S)-6-aminocyclohex-3-en-1-yl)-2-chloro-7-methyl-N-(pyridin-4-ylmethyl)thieno[3,2-d]pyrimidin-4-amine] | ≤ 30 nM | ≤ 30 nM
N[C@H]1CC=CC[C@@H]1c1sc2c(NCc3cccs3)cc(Cl)nc2c1C#CCCCCO [Compound 235, 6-(2-((1S,6S)-6-aminocyclohex-3-en-1-yl)-5-chloro-7-((thiophen-2-ylmethyl)amino)thieno[3,2-b]pyridin-3-yl)hex-5-yn-1-ol] | ≤ 30 nM | ≤ 30 nM
N[C@H]1CC=CC[C@@H]1c1sc2c(NCc3ccncc3F)nc(Cl)nc2c1Cl [Compound 236, 6-((1S,6S)-6-aminocyclohex-3-en-1-yl)-2,7-dichloro-N-((3-fluoropyridin-4-yl)methyl)thieno[3,2-d]pyrimidin-4-amine] | ≤ 30 nM | ≤ 30 nM
N[C@H]1CCCC[C@@H]1c1sc2c(NCc3ccccc3)cc(Cl)nc2c1Cl [Compound 237, 2-((1S,2S)-2-aminocyclohexyl)-N-benzyl-3,5-dichlorothieno[3,2-b]pyridin-7-amine] | ≤ 30 nM | ≤ 30 nM
N[C@H]1COCC[C@@H]1c1sc2c(NCc3ccco3)cc(Cl)nc2c1Br [Compound 238, 2-((3R,4S)-3-aminotetrahydro-2H-pyran-4-yl)-3-bromo-5-chloro-N-(furan-2-ylmethyl)thieno[3,2-b]pyridin-7-amine] | ≤ 30 nM | 30 to 300 nM
N[C@H]1CC=CC[C@@H]1c1sc2c(NCc3ccncc3F)cc(Cl)nc2c1Cl [Compound 239, 2-((1S,6S)-6-aminocyclohex-3-en-1-yl)-3,5-dichloro-N-((3-fluoropyridin-4-yl)methyl)thieno[3,2-b]pyridin-7-amine] | ≤ 30 nM | ≤ 30 nM
N[C@H]1CC=CC[C@@H]1c1sc2c(NCc3ccccc3)nc(Cl)nc2c1Br [Compound 241, 6-((1S,6S)-6-aminocyclohex-3-en-1-yl)-N-benzyl-7-bromo-2-chlorothieno[3,2-d]pyrimidin-4-amine] | ≤ 30 nM | ≤ 30 nM
N#Cc1cc(NCc2ccco2)c2sc([C@H]3CC=CC[C@@H]3N)c(Cl)c2n1 [Compound 242, 2-((1S,6S)-6-aminocyclohex-3-en-1-yl)-3-chloro-7-((furan-2-ylmethyl)amino)thieno[3,2-b]pyridine-5-carbonitrile] | ≤ 30 nM | ≤ 30 nM
N[C@H]1CCCO[C@@H]1c1c(Cl)c2nc(Cl)nc(NCc3ccco3)c2n1C(F)F [Compound 244, 6-((2S,3S)-3-aminotetrahydro-2H-pyran-2-yl)-2,7-dichloro-5-(difluoromethyl)-N-(furan-2-ylmethyl)-5H-pyrrolo[3,2-d]pyrimidin-4-amine] | ≤ 30 nM | ≤ 30 nM
Cc1c([C@H]2CC=CC[C@@H]2N)sc2c(NCc3cccs3)cc(C#N)nc12 [Compound 246, 2-((1S,6S)-6-aminocyclohex-3-en-1-yl)-3-methyl-7-((thiophen-2-ylmethyl)amino)thieno[3,2-b]pyridine-5-carbonitrile] | ≤ 30 nM | 30 to 300 nM
Cc1c([C@H]2CC=CC[C@@H]2N)sc2c(NCc3ccsc3)cc(Cl)nc12 [Compound 247, 2-((1S,6S)-6-aminocyclohex-3-en-1-yl)-5-chloro-3-methyl-N-(thiophen-3-ylmethyl)thieno[3,2-b]pyridin-7-amine] | 30 to 300 nM | 30 to 300 nM
N[C@H]1CCCO[C@@H]1c1c(Br)c2nc(Cl)nc(NCc3cccs3)c2n1C(F)F [Compound 248, 6-((2S,3S)-3-aminotetrahydro-2H-pyran-2-yl)-7-bromo-2-chloro-5-(difluoromethyl)-N-(thiophen-2-ylmethyl)-5H-pyrrolo[3,2-d]pyrimidin-4-amine] | 30 to 300 nM | 30 to 300 nM
CC#CCNc1cc(Cl)nc2c(Br)c([C@H]3CC(C)=C(C)C[C@@H]3N)sc12 [Compound 249, 2-((1S,6S)-6-amino-3,4-dimethylcyclohex-3-en-1-yl)-3-bromo-N-(but-2-yn-1-yl)-5-chlorothieno[3,2-b]pyridin-7-amine] | 30 to 300 nM | ≤ 30 nM
CC#CCNc1cc(Cl)nc2c(Cl)c([C@H]3CC=CC[C@@H]3N)sc12 [Compound 250, 2-((1S,6S)-6-aminocyclohex-3-en-1-yl)-N-(but-2-yn-1-yl)-3,5-dichlorothieno[3,2-b]pyridin-7-amine] | 30 to 300 nM | 30 to 300 nM
N[C@H]1CCCO[C@@H]1c1sc2c(NCc3ccncc3)cc(Cl)nc2c1Br [Compound 251, 2-((2S,3S)-3-aminotetrahydro-2H-pyran-2-yl)-3-bromo-5-chloro-N-(pyridin-4-ylmethyl)thieno[3,2-b]pyridin-7-amine] | 30 to 300 nM | ≤ 30 nM
Cc1c([C@H]2CC=CC[C@@H]2N)sc2c(NCc3ccncc3F)nc(Cl)nc12 [Compound 253, 6-((1S,6S)-6-aminocyclohex-3-en-1-yl)-2-chloro-N-((3-fluoropyridin-4-yl)methyl)-7-methylthieno[3,2-d]pyrimidin-4-amine] | 30 to 300 nM | ≤ 30 nM
N[C@H]1CCCO[C@@H]1c1c(I)c2nc(Cl)nc(NCc3cccs3)c2n1C(F)F [Compound 254, 6-((2S,3S)-3-aminotetrahydro-2H-pyran-2-yl)-2-chloro-5-(difluoromethyl)-7-iodo-N-(thiophen-2-ylmethyl)-5H-pyrrolo[3,2-d]pyrimidin-4-amine] | 30 to 300 nM | 30 to 300 nM
Cc1c([C@H]2CC=CC[C@@H]2N)sc2c(NCc3ccccc3)cc(Cl)nc12 [Compound 258, 2-((1S,6S)-6-aminocyclohex-3-en-1-yl)-N-benzyl-5-chloro-3-methylthieno[3,2-b]pyridin-7-amine] | 30 to 300 nM | ≤ 30 nM
Cc1c([C@H]2COCC[C@@H]2N)sc2c(NCc3ccco3)cc(Cl)nc12 [Compound 260, 2-((3R,4S)-4-aminotetrahydro-2H-pyran-3-yl)-5-chloro-N-(furan-2-ylmethyl)-3-methylthieno[3,2-b]pyridin-7-amine] | 30 to 300 nM | ≤ 30 nM
[2H]C1=C([2H])C([2H])([2H])[C@H](c2sc3c(NCc4cccs4)cc(Cl)nc3c2C)[C@@H](N)C1([2H])[2H] [Compound 261, 2-((1S,6S)-6-aminocyclohex-3-en-1-yl-2,2,3,4,5,5-d6)-5-chloro-3-methyl-N-(thiophen-2-ylmethyl)thieno[3,2-b]pyridin-7-amine] | 30 to 300 nM | 30 to 300 nM
N[C@H]1CCCO[C@@H]1c1c(Cl)c2nc(Cl)cc(NCc3cccs3)c2n1C(F)F [Compound 262, 2-((2S,3S)-3-aminotetrahydro-2H-pyran-2-yl)-3,5-dichloro-1-(difluoromethyl)-N-(thiophen-2-ylmethyl)-1H-pyrrolo[3,2-b]pyridin-7-amine] | 30 to 300 nM | 30 to 300 nM
N[C@H]1CC=CC[C@@H]1c1sc2c(NCc3ccccc3)nc(Cl)nc2c1Cl [Compound 263, 6-((1S,6S)-6-aminocyclohex-3-en-1-yl)-N-benzyl-2,7-dichlorothieno[3,2-d]pyrimidin-4-amine] | 30 to 300 nM | 30 to 300 nM
CN[C@H]1CCCC[C@@H]1c1sc2c(NCc3cccs3)cc(Cl)nc2c1C#CCCCO [Compound 264, 5-(5-chloro-2-((1S,2S)-2-(methylamino)cyclohexyl)-7-((thiophen-2-ylmethyl)amino)thieno[3,2-b]pyridin-3-yl)pent-4-yn-1-ol] | 30 to 300 nM | ≤ 30 nM
N[C@H]1COCC[C@@H]1c1sc2c(NCc3nccs3)cc(Cl)nc2c1I [Compound 265, 2-((3R,4S)-3-aminotetrahydro-2H-pyran-4-yl)-5-chloro-3-iodo-N-(thiazol-2-ylmethyl)thieno[3,2-b]pyridin-7-amine] | 30 to 300 nM | ≤ 30 nM
C=Cc1c([C@H]2CC=CC[C@@H]2N)sc2c(NCc3cccs3)cc(Cl)nc12 [Compound 267, 2-((1S,6S)-6-aminocyclohex-3-en-1-yl)-5-chloro-N-(thiophen-2-ylmethyl)-3-vinylthieno[3,2-b]pyridin-7-amine] | 30 to 300 nM | 30 to 300 nM
Cc1c([C@H]2CC=CC[C@@H]2N)sc2c(NCc3cccs3)nc(Cl)nc12 [Compound 268, 6-((1S,6S)-6-aminocyclohex-3-en-1-yl)-2-chloro-7-methyl-N-(thiophen-2-ylmethyl)thieno[3,2-d]pyrimidin-4-amine] | 30 to 300 nM | 30 to 300 nM
